Laboratory results taken from patent US20080194522A1, “Development of Fluorogenic Substrates For Monoamine Oxidases (Mao-A and Mao-B)” (priority 2004, published 2008).

What was measured:
Chemical stability = settings: in words
[1] = Photophysical characterization (absorbance, extinction coefficient, emission, quantum yield); type: physicochemical
Procedure: Extinction coefficients were the average of three independent determinations of three different readings from the lowest energy transition at three concentrations. Quantum yields are the average of three determinations of both quantum yield standard 9,10-diphenylanthracene and the synthesized coumarines at 340 nm unless otherwise indicated.
All spectra were recorded in 100 mM sodium phosphate (pH 7.4) unless otherwise indicated. Recorded λmax is that of the longest wavelength transition. Extinction coefficients were reported as the average of at least three independent preparations of the probes. Fluorescence measurements were taken on a Jobin Yvon Fluorolog fluorescence spectrofluorometer (slits 3, HV 750) in 100 mM sodium phosphate pH 7.4 buffer unless otherwise indicated. Quantum yields were measured relative to 9,10 diphenylanthracene in EtOH.4 Reported quantum efficiencies are the average of at least three independent preparations of the probes.
The extinction coefficient ε relates the absorbance of a compound to its concentration as expressed in Beer's law (A=εbc where A is absorbance, b is pathlength, and c is concentration). Extinction coefficients were the average of three independent determinations of three different readings of absorbance from the lowest energy transition at three concentrations. The quantum yield of fluorescence is the fraction of absorbed photons that lead to fluorescence; the number of photons fluoresced divided by the number of photons absorbed. To obtain the quantum yields of the synthesized coumarines their efficiency was compared to standard 9,10-diphenylanthracene at 340 nm in three different determinations. The effect of different solvents on the fluorescence of the compounds was also tested. The compounds were dissolved in methanol, chloroform and toluene and their emissions spectrum was taken.

[2] = Fluorescence switch / apparent fluorescence increase, product versus substrate; type: physicochemical
Procedure: Apparent fluorescence increase was calculated by comparing the slopes (arbitrary fluorescence units/μM) of standard curves of chemically synthesized product and substrate concentration versus fluorescence intensity. Calculation of the apparent fluorescence increase is shown below for probe 9, which has a 21000% apparent fluorescence increase in emission intensity at λem=524 nm. The constants fP and fS were calculated from the slope of a line of fluorescence intensity versus concentration of chemically synthesized product indole 10 and substrate 9, respectively. These slopes were obtained from calibration curves of at least five concentrations of 9 and 10 in phosphate buffer (pH 7.4). The preparations of the compounds in mitochondrial assay buffer have negligible effects on fS and fP.

[3] = Solubility in aqueous solution; type: physicochemical; settings: in words
MAO-B = biological target: T1, MAO-B (Bos taurus, UniProt P56560); assay: Monoamine oxidase B substrate assay, beef liver mitochondria, fluorescence detection of indole product
T1 sequence (P56560 1-520): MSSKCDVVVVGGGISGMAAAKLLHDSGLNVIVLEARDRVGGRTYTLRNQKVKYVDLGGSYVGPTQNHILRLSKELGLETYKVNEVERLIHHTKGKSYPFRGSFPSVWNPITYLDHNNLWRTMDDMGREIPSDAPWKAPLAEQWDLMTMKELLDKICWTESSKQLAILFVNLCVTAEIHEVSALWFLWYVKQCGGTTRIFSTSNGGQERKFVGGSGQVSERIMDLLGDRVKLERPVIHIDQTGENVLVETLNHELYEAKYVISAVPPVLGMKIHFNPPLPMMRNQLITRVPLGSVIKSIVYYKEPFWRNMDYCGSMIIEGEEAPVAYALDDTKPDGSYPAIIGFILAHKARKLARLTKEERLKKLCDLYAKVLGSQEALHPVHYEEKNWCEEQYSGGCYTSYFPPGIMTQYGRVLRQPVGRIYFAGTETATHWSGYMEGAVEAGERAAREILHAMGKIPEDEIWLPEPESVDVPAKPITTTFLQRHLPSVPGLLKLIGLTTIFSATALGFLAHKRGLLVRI

MAO-A = biological target: T2, MAO-A (Homo sapiens, UniProt P21397); assay: Monoamine oxidase A substrate assay, human placenta mitochondria, fluorescence detection of indole product
T2 sequence (P21397 1-527): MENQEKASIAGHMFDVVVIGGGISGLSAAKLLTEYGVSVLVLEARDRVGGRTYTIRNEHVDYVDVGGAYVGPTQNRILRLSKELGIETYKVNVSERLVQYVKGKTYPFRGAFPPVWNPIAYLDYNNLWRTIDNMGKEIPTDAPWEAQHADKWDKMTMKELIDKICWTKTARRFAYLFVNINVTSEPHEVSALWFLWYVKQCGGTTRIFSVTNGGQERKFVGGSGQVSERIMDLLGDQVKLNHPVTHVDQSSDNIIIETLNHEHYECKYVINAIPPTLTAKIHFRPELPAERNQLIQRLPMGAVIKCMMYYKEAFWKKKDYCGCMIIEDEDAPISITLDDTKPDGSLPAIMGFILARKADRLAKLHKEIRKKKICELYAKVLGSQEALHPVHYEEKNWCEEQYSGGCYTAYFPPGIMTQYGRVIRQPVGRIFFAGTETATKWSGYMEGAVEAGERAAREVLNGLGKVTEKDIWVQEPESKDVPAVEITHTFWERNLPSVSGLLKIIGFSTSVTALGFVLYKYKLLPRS

[4] = 24-hour incubation, room temperature, pH 7.4

| SMILES | chemical stability (Chemical stability) | emission wavelength [1] [nm] | fluorescence, in words ([1]; aqueous / phosphate buffer) | fluorescence emission intensity increase, indole/pyrrolocoumarin versus aniline/aminocoumarin [2] [fold] | solubility in aqueous solution [3] | Φ ([1]; Table 2, in water, relative to 9,10-diphenyl anthracene (excited at 340 nm)) | ε (M^−1cm^−1) ([1]; Table 2 diamines, in water) | λmax (nm) ([1]; Table 2 diamines, in water) | enzyme-catalyzed conversion of diamine to indole (MAO-B; [4]) | kcx (MAO-B; Table 6, Monoamine Oxidase B) [min⁻¹] | substrate quality for MAO-B (MAO-B; in words) | enzyme-catalyzed conversion of diamine to indole (MAO-A; [4]) | kcx (MAO-A; Table 6, Monoamine Oxidase A) [min⁻¹] | substrate quality for MAO-A (MAO-A; in words) |
| --- | --- | --- | --- | --- | --- | --- | --- | --- | --- | --- | --- | --- | --- | --- |
| CCN(CC)c1ccc2c(C)c(-c3ccc4[nH]ccc4c3)c(=O)oc2c1 [Probe 17, 7-Diethylamino-3-(1H-indol-5-yl)-4-methyl-chromen-2-one] | chemically and photo-physically stable | 475 | highly fluorescent | 12 | reasonably soluble | – | – | – | – | – | – | – | – | – |
| NCCc1cc2oc(=O)ccc2cc1N [III] | – | – | – | – | – | 0.0017 | 2,000 ± 100 M^−1cm^−1 | 352 | significant conversion | 20.62 | good substrate for MAO-B | significant conversion | 0.475 | good substrate for MAO-A |
